# Results reported in US10392391B2 (Vertex Pharmaceuticals Incorporated, priority 2012, dated 2019).
# Like-named read-outs stand apart in the source and are kept apart here.
# Target: ATR kinase (full-length ATR) (Homo sapiens (Human), UniProt Q13535)
# Assay: ATR inhibition assay (radioactive-phosphate incorporation)
# Format: biochemical
# Procedure: Compounds were screened for their ability to inhibit ATR kinase using a radioactive-phosphate incorporation assay. Assays were carried out in a mixture of 50 mM Tris/HCl (pH 7.5), 10 mM MgCl2 and 1 mM DTT. Final substrate concentrations were 10 μM [γ-33P]ATP (3mCi 33P ATP/mmol ATP, Perkin Elmer) and 800 μM target peptide ([…]) (SEQ ID NO:1).
# Assays were carried out at 25° C. in the presence of 5 nM full-length ATR. An assay stock buffer solution was prepared containing all of the reagents listed above, with the exception of ATP and the test compound of interest. 13.5 μL of the stock solution was placed in a 96 well plate followed by addition of 2 μL of DMSO stock containing serial dilutions of the test compound (typically starting from a final concentration of 15 μM with 3-fold serial dilutions) in duplicate (final DMSO concentration 7%). The plate was pre-incubated for 10 minutes at 25° C. and the reaction initiated by addition of 15 μL [γ-33P]ATP (final concentration 10 μM).
# The reaction was stopped after […] by the addition of 30 μL 0.1M phosphoric acid containing 2 mM ATP. A multiscreen phosphocellulose filter 96-well plate (Millipore, Cat no. MAPHN0B50) was pretreated with 100 μL 0.2M phosphoric acid prior to the addition of […] of the stopped assay mixture. The plate was washed with 5×200 μL 0.2M phosphoric acid. After drying, 100 μL Optiphase ‘SuperMix’ liquid scintillation cocktail (Perkin Elmer) was added to the well prior to scintillation counting (1450 Microbeta Liquid Scintillation Counter, Wallac).
# After removing mean background values for all of the data points, Ki(app) data were calculated from non-linear regression analysis of the initial rate data using the Prism software package (GraphPad Prism version 3.0cx for Macintosh, GraphPad Software, San Diego Calif., USA).
# [1] = Ki(app), 5 nM full-length ATR, 10 μM ATP, 25° C.
# Sequence of ATR kinase (full-length ATR) (Q13535 whole entry): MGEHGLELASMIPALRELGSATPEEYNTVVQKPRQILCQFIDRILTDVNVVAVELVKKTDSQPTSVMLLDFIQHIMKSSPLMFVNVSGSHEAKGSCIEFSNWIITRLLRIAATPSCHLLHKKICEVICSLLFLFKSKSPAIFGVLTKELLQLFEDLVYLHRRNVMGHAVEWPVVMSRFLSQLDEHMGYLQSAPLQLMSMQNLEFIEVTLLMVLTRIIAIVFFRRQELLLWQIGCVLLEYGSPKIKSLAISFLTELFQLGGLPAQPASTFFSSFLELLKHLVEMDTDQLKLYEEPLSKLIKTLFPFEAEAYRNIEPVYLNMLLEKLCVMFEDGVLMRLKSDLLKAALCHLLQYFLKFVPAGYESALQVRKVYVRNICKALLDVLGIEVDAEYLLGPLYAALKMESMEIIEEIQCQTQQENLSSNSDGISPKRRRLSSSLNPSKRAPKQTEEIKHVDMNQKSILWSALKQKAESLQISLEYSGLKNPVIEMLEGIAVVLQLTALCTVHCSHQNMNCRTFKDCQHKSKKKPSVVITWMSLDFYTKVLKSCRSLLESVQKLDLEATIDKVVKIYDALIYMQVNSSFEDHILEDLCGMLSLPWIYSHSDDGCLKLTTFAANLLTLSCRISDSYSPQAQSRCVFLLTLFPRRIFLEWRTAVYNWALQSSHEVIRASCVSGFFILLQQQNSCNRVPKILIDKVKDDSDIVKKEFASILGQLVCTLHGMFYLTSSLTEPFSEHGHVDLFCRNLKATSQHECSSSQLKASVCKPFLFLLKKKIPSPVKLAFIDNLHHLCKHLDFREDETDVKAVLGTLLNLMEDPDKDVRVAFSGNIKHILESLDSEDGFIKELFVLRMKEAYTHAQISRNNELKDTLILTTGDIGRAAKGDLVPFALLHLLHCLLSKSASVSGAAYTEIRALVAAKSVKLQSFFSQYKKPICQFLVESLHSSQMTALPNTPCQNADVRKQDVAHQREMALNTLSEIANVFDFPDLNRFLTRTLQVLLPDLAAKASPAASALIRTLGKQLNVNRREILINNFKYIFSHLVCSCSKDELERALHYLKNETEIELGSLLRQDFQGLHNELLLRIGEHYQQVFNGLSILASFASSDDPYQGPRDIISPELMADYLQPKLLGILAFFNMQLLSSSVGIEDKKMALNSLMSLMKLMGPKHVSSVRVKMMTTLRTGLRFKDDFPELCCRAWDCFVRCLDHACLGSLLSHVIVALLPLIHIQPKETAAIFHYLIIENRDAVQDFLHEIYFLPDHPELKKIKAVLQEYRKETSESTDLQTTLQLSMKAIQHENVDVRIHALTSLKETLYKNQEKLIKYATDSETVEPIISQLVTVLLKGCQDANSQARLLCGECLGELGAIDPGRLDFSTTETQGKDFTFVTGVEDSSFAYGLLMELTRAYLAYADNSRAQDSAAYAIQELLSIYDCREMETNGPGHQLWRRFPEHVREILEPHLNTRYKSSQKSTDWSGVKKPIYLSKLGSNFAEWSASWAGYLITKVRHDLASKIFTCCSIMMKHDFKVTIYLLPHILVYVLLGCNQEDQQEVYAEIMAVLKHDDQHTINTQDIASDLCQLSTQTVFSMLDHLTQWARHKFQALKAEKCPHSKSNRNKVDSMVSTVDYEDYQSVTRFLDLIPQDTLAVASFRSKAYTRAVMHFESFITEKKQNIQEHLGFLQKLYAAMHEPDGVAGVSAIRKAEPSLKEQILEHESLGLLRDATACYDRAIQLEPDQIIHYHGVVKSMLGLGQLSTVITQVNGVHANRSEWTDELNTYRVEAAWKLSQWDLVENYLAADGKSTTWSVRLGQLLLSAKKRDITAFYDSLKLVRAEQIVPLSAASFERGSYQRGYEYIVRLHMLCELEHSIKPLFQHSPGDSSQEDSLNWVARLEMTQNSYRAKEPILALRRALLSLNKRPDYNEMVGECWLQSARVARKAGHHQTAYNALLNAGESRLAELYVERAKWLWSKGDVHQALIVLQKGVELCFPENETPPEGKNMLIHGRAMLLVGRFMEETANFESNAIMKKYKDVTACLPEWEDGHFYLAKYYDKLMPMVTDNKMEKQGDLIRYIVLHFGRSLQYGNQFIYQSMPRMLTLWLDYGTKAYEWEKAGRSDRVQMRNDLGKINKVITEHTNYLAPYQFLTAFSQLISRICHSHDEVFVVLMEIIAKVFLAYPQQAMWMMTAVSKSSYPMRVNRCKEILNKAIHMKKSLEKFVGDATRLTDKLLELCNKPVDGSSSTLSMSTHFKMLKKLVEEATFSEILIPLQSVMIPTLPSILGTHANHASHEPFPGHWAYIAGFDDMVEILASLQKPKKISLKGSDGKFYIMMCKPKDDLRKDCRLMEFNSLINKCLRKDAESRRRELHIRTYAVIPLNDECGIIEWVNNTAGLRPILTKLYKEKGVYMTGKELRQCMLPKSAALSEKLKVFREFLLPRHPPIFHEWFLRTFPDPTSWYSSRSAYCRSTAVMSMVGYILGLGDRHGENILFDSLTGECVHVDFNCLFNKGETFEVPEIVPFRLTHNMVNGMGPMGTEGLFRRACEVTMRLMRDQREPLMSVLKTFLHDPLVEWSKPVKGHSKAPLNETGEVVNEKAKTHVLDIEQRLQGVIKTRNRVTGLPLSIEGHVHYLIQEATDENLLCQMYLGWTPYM
Ki [1] [nM],Ki [nM],SMILES
10 to 1000,,"C[C@H]1CN(C(=O)C2CCN(c3c(F)cncc3NC(=O)c3c(N)nn4cc(F)cnc34)CC2)CCN1C [I-G-47, (S)-2-amino-N-(4-(4-(3,4-dimethylpiperazine-1-carbonyl)piperidin-1-yl)-5-fluoropyridin-3-yl)-6-fluoropyrazolo[1,5-a]pyrimidine-3-carboxamide]"
10 to 1000,,"CN1CCN(c2c(F)cncc2NC(=O)c2c(N)nn3cc(CC#N)cnc23)CC1 [I-N-80, 2-amino-6-(cyanomethyl)-N-(5-fluoro-4-(4-methylpiperazin-1-yl)pyridin-3-yl)pyrazolo[1,5-a]pyrimidine-3-carboxamide]"
10 to 1000,,"Nc1nn2cc(F)cnc2c1C(=O)Nc1cncc(F)c1N1CCC2(CC1)COC2 [I-N-239, 2-amino-6-fluoro-N-(5-fluoro-4-(2-oxa-7-azaspiro[3.5]nonan-7-yl)pyridin-3-yl)pyrazolo[1,5-a]pyrimidine-3-carboxamide]"
10 to 1000,,"Nc1nn2cc(Cl)cnc2c1C(=O)Nc1cnccc1OCCN1CCOCC1 [I-O-60, 2-amino-6-chloro-N-(4-(2-morpholinoethoxy)pyridin-3-yl)pyrazolo[1,5-a]pyrimidine-3-carboxamide]"
,1000 to 5000,"CN(C)CCCOc1ccncc1NC(=O)c1c(N)nn2cc(Cl)cnc12 [I-O-52, 2-amino-6-chloro-N-(4-(3-(dimethylamino)propoxy)pyridin-3-yl)pyrazolo[1,5-a]pyrimidine-3-carboxamide]"
10 to 1000,,"Nc1nn2cc(F)cnc2c1C(=O)Nc1cncc(F)c1N1CCS(=O)(=O)CC1 [I-N-250, 2-amino-N-(4-(1,1-dioxidothiomorpholino)-5-fluoropyridin-3-yl)-6-fluoropyrazolo[1,5-a]pyrimidine-3-carboxamide]"
10 to 1000,,"Nc1nn2cc(F)cnc2c1C(=O)Nc1cncc(F)c1N1CCN(C(=O)C2CCN(C3COC3)CC2)CC1 [I-N-211, 2-amino-6-fluoro-N-(5-fluoro-4-(4-(1-(oxetan-3-yl)piperidine-4-carbonyl)piperazin-1-yl)pyridin-3-yl)pyrazolo[1,5-a]pyrimidine-3-carboxamide]"
10 to 1000,,"CN(C)CCOc1ccncc1NC(=O)c1c(N)nn2cc(Cl)cnc12 [I-O-48, 2-amino-6-chloro-N-(4-(2-(dimethylamino)ethoxy)pyridin-3-yl)pyrazolo[1,5-a]pyrimidine-3-carboxamide]"
10 to 1000,,"CNc1cc(N2CCN(C)CC2)c(NC(=O)c2c(N)nn3cc(F)cnc23)cn1 [I-N-129, 2-amino-6-fluoro-N-(6-(methylamino)-4-(4-methylpiperazin-1-yl)pyridin-3-yl)pyrazolo[1,5-a]pyrimidine-3-carboxamide]"
10 to 1000,,"Nc1nn2cc(F)cnc2c1C(=O)Nc1cncc(F)c1N1CCC(S(=O)(=O)N2CCN3CCC2CC3)CC1 [I-N-273, N-(4-(4-(1,4-diazabicyclo[3.2.2]nonan-4-ylsulfonyl)piperidin-1-yl)-5-fluoropyridin-3-yl)-2-amino-6-fluoropyrazolo[1,5-a]pyrimidine-3-carboxamide]"
10 to 1000,,"Nc1nn2cc(F)cnc2c1C(=O)Nc1cnccc1N1CCC(c2ncon2)CC1 [I-N-241, N-(4-(4-(1,2,4-oxadiazol-3-yl)piperidin-1-yl)pyridin-3-yl)-2-amino-6-fluoropyrazolo[1,5-a]pyrimidine-3-carboxamide]"
10 to 1000,,"Nc1nn2cc(Cl)cnc2c1C(=O)Nc1cnccc1N1CCNC(C(F)(F)F)C1 (stereo not drawn) [I-N-70, 2-amino-6-chloro-N-(4-(3-(trifluoromethyl)piperazin-1-yl)pyridin-3-yl)pyrazolo[1,5-a]pyrimidine-3-carboxamide]"
10 to 1000,,"Nc1nn2cc(F)cnc2c1C(=O)Nc1cnccc1-c1ccc(C(=O)N2CCN(C3COC3)CC2)nc1 [I-C-52, 2-amino-6-fluoro-N-(6-(4-(oxetan-3-yl)piperazine-1-carbonyl)-[3,4′-bipyridin]-3′-yl)pyrazolo[1,5-a]pyrimidine-3-carboxamide]"
10 to 1000,,"Nc1nn2cc(F)cnc2c1C(=O)Nc1cnccc1N1CCS(=O)(=O)CC1 [I-N-210, 2-amino-N-(4-(1,1-dioxidothiomorpholino)pyridin-3-yl)-6-fluoropyrazolo[1,5-a]pyrimidine-3-carboxamide]"
10 to 1000,,"Cn1ncnc1-c1ccncc1NC(=O)c1c(N)nn2cc(F)cnc12 [I-C-65, 2-amino-6-fluoro-N-(4-(1-methyl-1H-1,2,4-triazol-5-yl)pyridin-3-yl)pyrazolo[1,5-a]pyrimidine-3-carboxamide]"
10 to 1000,,"Nc1nn2cc(F)cnc2c1C(=O)Nc1cnccc1-c1ccc(C(=O)N2CCC(N3CCCC3)CC2)nc1 [I-C-53, 2-amino-6-fluoro-N-(6-(4-(pyrrolidin-1-yl)piperidine-1-carbonyl)-[3,4′-bipyridin]-3′-yl)pyrazolo[1,5-a]pyrimidine-3-carboxamide]"
10 to 1000,,"CN1CCN(C(=O)C2CCN(c3c(F)cncc3NC(=O)c3c(N)nn4cc(F)cnc34)CC2)CC12CC2 [I-G-38, 2-amino-6-fluoro-N-(5-fluoro-4-(4-(4-methyl-4,7-diazaspiro[2.5]octane-7-carbonyl)piperidin-1-yl)pyridin-3-yl)pyrazolo[1,5-a]pyrimidine-3-carboxamide]"
10 to 1000,,"Nc1nn2cc(Cl)cnc2c1C(=O)Nc1cnccc1N1CCC(N2CCC3(COC3)C2)CC1 [I-N-99, N-(4-(4-(2-oxa-6-azaspiro[3.4]octan-6-yl)piperidin-1-yl)pyridin-3-yl)-2-amino-6-chloropyrazolo[1,5-a]pyrimidine-3-carboxamide]"
10 to 1000,,"Nc1nn2cc(F)cnc2c1C(=O)Nc1cncc(F)c1N1CCC(CN2CCOCC2)CC1 [I-N-149, 2-amino-6-fluoro-N-(5-fluoro-4-(4-(morpholinomethyl)piperidin-1-yl)pyridin-3-yl)pyrazolo[1,5-a]pyrimidine-3-carboxamide]"
10 to 1000,,"COC1CCN(c2ccncc2NC(=O)c2c(N)nn3cc(Cl)cnc23)CC1 [I-N-73, 2-amino-6-chloro-N-(4-(4-methoxypiperidin-1-yl)pyridin-3-yl)pyrazolo[1,5-a]pyrimidine-3-carboxamide]"
10 to 1000,,"CS(=O)(=O)C1CN(C(=O)C2CCN(c3c(F)cncc3NC(=O)c3c(N)nn4cc(F)cnc34)CC2)C1 [I-G-86, 2-amino-6-fluoro-N-(5-fluoro-4-(4-(3-(methylsulfonyl)azetidine-1-carbonyl)piperidin-1-yl)pyridin-3-yl)pyrazolo[1,5-a]pyrimidine-3-carboxamide]"
10 to 1000,,"CS(=O)(=O)C1CCN(c2c(Cl)cncc2NC(=O)c2c(N)nn3cc(F)cnc23)C1 (stereo not drawn) [I-N-287, 2-amino-N-(5-chloro-4-(3-(methylsulfonyl)pyrrolidin-1-yl)pyridin-3-yl)-6-fluoropyrazolo[1,5-a]pyrimidine-3-carboxamide]"
10 to 1000,,"Nc1nn2cc(F)cnc2c1C(=O)Nc1cnccc1-n1ccnc1 [I-N-7, N-(4-(1H-imidazol-1-yl)pyridin-3-yl)-2-amino-6-fluoropyrazolo[1,5-a]pyrimidine-3-carboxamide]"
10 to 1000,,"Nc1nn2cc(F)cnc2c1C(=O)Nc1cnccc1O[C@H]1Cc2nccn2C1 [I-O-16, (S)-2-amino-N-(4-((6,7-dihydro-5H-pyrrolo[1,2-a]imidazol-6-yl)oxy)pyridin-3-yl)-6-fluoropyrazolo[1,5-a]pyrimidine-3-carboxamide]"
10 to 1000,,"Cc1cncnc1-c1ccncc1NC(=O)c1c(N)nn2cc(F)cnc12 [I-C-67, 2-amino-6-fluoro-N-(4-(5-methylpyrimidin-4-yl)pyridin-3-yl)pyrazolo[1,5-a]pyrimidine-3-carboxamide]"
10 to 1000,,"Nc1nn2cc(F)cnc2c1C(=O)Nc1cnccc1C1CCN(C2COC2)CC1 [I-C-10, 2-amino-6-fluoro-N-(4-(1-(oxetan-3-yl)piperidin-4-yl)pyridin-3-yl)pyrazolo[1,5-a]pyrimidine-3-carboxamide]"
10 to 1000,,"Nc1nn2cc(F)cnc2c1C(=O)Nc1cnccc1N1CCN2[C@@H](CCS2(=O)=O)C1 [I-N-247, (S)-2-amino-N-(4-(1,1-dioxidotetrahydro-2H-isothiazolo[2,3-a]pyrazin-5(3H)-yl)pyridin-3-yl)-6-fluoropyrazolo[1,5-a]pyrimidine-3-carboxamide]"

SMILES,Ki [1] [nM],Ki [nM]
"Nc1nn2cc(Cl)cnc2c1C(=O)Nc1cnccc1OC1CN2CCC1CC2 (stereo not drawn) [I-O-62, 2-amino-6-chloro-N-(4-(quinuclidin-3-yloxy)pyridin-3-yl)pyrazolo[1,5-a]pyrimidine-3-carboxamide]",10 to 1000,
"Nc1nn2cc(F)cnc2c1C(=O)Nc1cncc(F)c1C1=CCN(C2COC2)CC1 [I-C-12, 2-amino-6-fluoro-N-(5-fluoro-1′-(oxetan-3-yl)-1′,2′,3′,6′-tetrahydro-[4,4′-bipyridin]-3-yl)pyrazolo[1,5-a]pyrimidine-3-carboxamide]",10 to 1000,
"Nc1nn2cc(F)cnc2c1C(=O)Nc1cnccc1OC1CN2CCC1CC2 (racemic) [I-O-6, (R,S)-2-amino-6-fluoro-N-(4-(quinuclidin-3-yloxy)pyridin-3-yl)pyrazolo[1,5-a]pyrimidine-3-carboxamide]",10 to 1000,
